3 compounds from patent US9290436B2, “Compositions containing carboxylic acid-substituted derivatives” (Elizabeth Arden, Inc., priority 2008, dated 2016) can be followed below.

Series [1] can be described thus: Six-week double-blind clinical evaluation for the treatment of red and brown pigmented skin. The series is classed as in vivo, human. To be noted: 0.5% in vehicle, twice a day to facial area for 6 weeks; expert grading of Canfield VISIA-CR RBX images; women ages 40-70. On the procedure:
A six-week double-blind clinical evaluation was performed, comparing a control vehicle to idebenone dipalmitoyl glycerate for the treatment of red and brown pigmented skin. Approximately 36 women, ages 40-70 with moderate hyperpigmentation and reddening of the skin were selected to participate in the study. Subjects were randomly assigned to one of three groups. Group I received a product with no idebenone active ingredient (vehicle), Group II received the same vehicle with 0.5% Idebenone (Hydroxydecyl Ubiquinone) added, and Group III received the same vehicle with 0.5% of Idebenone Dipalmitoyl Glycerate added. Subjects were instructed to apply the product twice a day (morning and evening) to the facial area for 6 weeks. Canfield VISIA-CR RBX images were made at baseline and after 6 weeks use and analyzed. Digital and UV photographs were also taken, standardizing distance and positioning of the subjects, pre and post product application.

Series [2] is described as follows: Maximization Test (repeat insult patch test) for contact-sensitizing potential. Type of series: in vivo, human. To be noted: Vehicle+1% test substance, occlusive patch, 5 induction exposures with SLS pre-treatment, single challenge; graded 48 or 72 hours after application of challenge patches; healthy adult volunteers. On the procedure: A study was performed to evaluate the contact-sensitizing potential of a topical Facial Cream containing idebenone dipalmitoyl glycerate (Vehicle+1% idebenone dipalmitoyl glycerate) using the Maximization Test. The test was a repeat insult patch test wherein the test material was applied under an occlusive dressing to the upper outer arm, volar forearm or back repeatedly to the same site for five 48-hour induction periods, followed 10-14 days later by a single challenge to a naive skin site. The test sample was coded Cream A and tested as supplied viz. neat. All test materials were stored under ambient conditions in an inaccessible location under the supervision of the investigator.
The test subjects were all healthy, adult volunteers over the age of 18 years. […]

Consider “3-oxo-3-(9-(2,4,5-trimethyl-3,6-dioxocyclohexa-1,4-dienyl)monyloxy)propane-1,2-diyl dipalmitate [idebenone dipalmitoyl glycerate]”, for which, in series [1], the “subjects responded with a decrease in brown pigmentation” value turned out to be 75% and the “subjects responded with less redness” value is given as 58%.
`COC1=C(OC)C(=O)C(CCCCCCCCCCOP(=O)(O)O)=C(C)C1=O` [idebenone phosphate ester]: the “subjects with contact allergy / positive reaction (recordable level of skin sensitization) after challenge” value in series [2] is reported as “Four subjects exhibited positive reactions”.
With `COC1=C(OC)C(=O)C(CCCCCCCCCCO)=C(C)C1=O` [idebenone, 6-(10-hydroxydecyl)-2,3-dimethoxy-5-methyl-1,4-benzoquinone], in series [1], the “subjects responded with a decrease in brown pigmentation” value is listed as 67% and the “subjects responded with less redness” value worked out at 58%.
